From patent US12612392B2, “Compound, pharmaceutical compositions containing same, synthesis method therefor and use thereof” (SHENZHEN ZHONGGE BIOLOGICAL TECHNOLOGY CO., LTD., priority 2022, dated 2026)

Tests used:
[1] = system: HEK293T/17-ATF4 uORF-Luc-Puro monoclonal cells; test: Cell activity test: ATF4 luciferase reporter, thapsigargin-induced stress; assay type: cell-based; details: Homo sapiens, HEK-293T; ATF4 reporter expression, 50 nM thapsigargin, 6 hours
Text: The ATF4 luciferase reporter plasmid consists of two parts, i.e., the 5′ untranslated region sequence of the ATF4 gene and the luciferase coding sequence. Specifically, the ATF4 5′ untranslated region sequence (NCBI database number BC022088.2) containing two upstream open reading frames (uORFs), and the firefly luciferase encoding gene were cloned into the pLVX-Puro vector (YouBio, VT1465). The lentivirus packaging plasmids were psPAX2 (YouBio, VT1444) and pMD2.G (YouBio, VT1443). HEK293T/17 cells were transfected with the above three plasmids simultaneously using X-tremeGENE 9 DNA transfection reagent, and after 48 hours, a culture medium containing lentivirus was collected. HEK293T/17 cells transduced with the virus were screened with 1 μg/mL puromycin, and then monoclonal cells were obtained by limiting dilution.
By using this cell line and the cold fluorescence readings, the translational regulation of ATF4 can be detected, and the activity of the eIF2B activator can be tested. The specific experimental process is as follows: 6000 HEK293T/17-ATF4 uORF-Luc-Puro monoclonal cells were plated in a 384-well plate and allowed to adhere overnight. The test compounds were dissolved in DMSO and added together with 50 nM thapsigargin to the cell culture medium and incubated for 6 hours, wherein the thapsigargin was used to cause cellular stress and upregulate the protein translation of ATF4. Six hours after the addition, the cells were lysed using the One-Glo Luciferase Assay Kit (Promega #E6120), and then the cold fluorescence values were read using the LUM program of the EnVision 2104 plate reader.
The ATF4 reporter expression % was calculated as follows:
[formula] • ave_vc: average signal value of negative control • ave_pc: average signal value of positive control • ave_sample: average signal value of sample
The dose-response curves were fitted, and the EC50 values were calculated.
The nonlinear regression log (inhibitor) vs. response—variable slope (four parameters) method of GraphPad 9 software was used to fit the corresponding relationship between the ATF4 reporter expression % and the compound concentration.
X-axis: log value of compound concentration; Y-axis: ATF4 reporter expression %; Top: evaluation of upper asymptote of curve; Bottom: evaluation of lower asymptote of curve; Hillslope: slope of the fitted curve.

[2] = Cell membrane permeability (A to B / B to A, efflux ratio); assay type: in vitro ADME
Experimental: The test compounds were diluted from 10 mM stock solutions to a concentration of 10 μM using the transport buffer (HBSS+BSA) and applied to the apical or basolateral side of the cell monolayer. After the incubation at 37° C., 5% CO2 and 95% relative humidity for 120 minutes, the permeability of the test compounds in the A to B direction or the B to A direction was tested in duplicate. In addition, the efflux ratio of each compound was determined. The test substances and reference substances were quantitatively analyzed by the LC-MS/MS method based on the analyte/IS peak area ratio.

Compound	EC50 [1]	efflux ratio at 120 min, 10 µM [2]
COC1CN(c2nnc(C3CCN(NC(=O)COc4ccc(Cl)c(F)c4)CC3)o2)C1 [Compound 1]	0.01 to 0.1 µM	
COC1CN(c2nnc(C3CCC(NC(=O)COc4ccc(Cl)c(F)c4)CC3)o2)C1 (stereo not drawn) [Compound 2]	0.01 to 0.1 µM	
O=C(COc1ccc(Cl)c(F)c1)NC12CCC(c3nnc(N4CC(OC(F)(F)F)C4)o3)(CC1)CC2 [Compound 3]	0.001 to 0.01 µM	
O=C(COc1ccc(Cl)c(F)c1)NC12CCC(c3nnc(N4CC(OC(F)(F)F)C4)o3)(CC1)CC2O (stereo not drawn) [Compound 4]	< 0.001 µM	
O=C(COc1ccc(Cl)c(F)c1)NN1CCC(c2nnc(N3CC(OC(F)(F)F)C3)o2)CC1 [Compound 7]	< 0.001 µM	
O=C(COc1ccc(Cl)c(F)c1)NC12CCC(c3nnc(N4CC5(C4)CC(F)(F)C5)o3)(CC1)CC2 [Compound 8]	0.01 to 0.1 µM	
CP(C)(=O)C1CN(c2nnc(C34CCC(NC(=O)COc5ccc(Cl)c(F)c5)(CC3)CC4)o2)C1 [Compound 9]	> 0.1 µM	
O=C(COc1ccc(Cl)c(F)c1)NC12CCC(c3nnc(N4CC(OC(F)(F)C(F)(F)F)C4)o3)(CC1)CC2 [Compound 10]	0.001 to 0.01 µM	
O=C(COc1ccc(Cl)c(F)c1)N[C@H]1CC[C@H](c2nnc(NC3CC(C(F)(F)F)C3)o2)CC1 (stereo partly drawn) [Compound 11]	0.01 to 0.1 µM	
Fc1cc(OCC(=S)N[C@H]2CC[C@H](c3nnc(N4CC(OC(F)(F)F)C4)o3)CC2)ccc1Cl [Compound 12]	0.001 to 0.01 µM	
CN(c1nnc([C@H]2CC[C@H](NC(=O)COc3ccc(Cl)c(F)c3)CC2)o1)C1CC(C(F)(F)F)C1 (stereo partly drawn) [Compound 14]	0.01 to 0.1 µM	
O=C(COc1ccc(Cl)cc1)N[C@H]1CC[C@H](c2nnc(N3CC(OC(F)(F)F)C3)o2)CC1 [Compound 15]	< 0.001 µM	
O=C(COc1ccc(Cl)c(F)c1)N[C@@H]1CC[C@@H](c2nnc(N3CC(OC(F)(F)F)C3)o2)OC1 [Compound 16]	0.001 to 0.01 µM	
O=C(CO[C@H]1C[C@@H](OC(F)(F)F)C1)N[C@H]1CC[C@H](c2nnc(N3CC(OC(F)(F)F)C3)o2)CC1 [Compound 17]	0.01 to 0.1 µM	
O=C(COc1ccc(Cl)cn1)N[C@H]1CC[C@H](c2nnc(N3CC(OC(F)(F)F)C3)o2)CC1 [Compound 18]	0.01 to 0.1 µM	
O=C(COc1ccc(Cl)c(F)c1)N[C@H]1CC[C@H](c2nnc(N3CC(OC(F)F)C3)o2)CC1 [Compound 19]	0.001 to 0.01 µM	
O=C(COc1ccc(F)cc1)N[C@H]1CC[C@H](c2nnc(N3CC(OC(F)(F)F)C3)o2)CC1 [Compound 21]	0.01 to 0.1 µM	
O=C(COc1ccccc1Cl)N[C@H]1CC[C@H](c2nnc(N3CC(OC(F)(F)F)C3)o2)CC1 [Compound 22]	> 0.1 µM	
O=C(COc1cccc(Cl)c1)N[C@H]1CC[C@H](c2nnc(N3CC(OC(F)(F)F)C3)o2)CC1 [Compound 23]	0.01 to 0.1 µM	
O=C(COc1cccc(F)c1)N[C@H]1CC[C@H](c2nnc(N3CC(OC(F)(F)F)C3)o2)CC1 [Compound 24]	0.01 to 0.1 µM	
O=C(COc1ccc(F)c(Cl)c1)N[C@H]1CC[C@H](c2nnc(N3CC(OC(F)(F)F)C3)o2)CC1 [Compound 25]	0.001 to 0.01 µM	
O=C(COc1ccc(Cl)c(Br)c1)N[C@H]1CC[C@H](c2nnc(N3CC(OC(F)(F)F)C3)o2)CC1 [Compound 26]	< 0.001 µM	
O=C(COc1ccc(Cl)cc1Cl)N[C@H]1CC[C@H](c2nnc(N3CC(OC(F)(F)F)C3)o2)CC1 [Compound 27]	0.01 to 0.1 µM	
O=C(COc1ccc(Cl)c(Cl)c1)N[C@H]1CC[C@H](c2nnc(N3CC(OC(F)(F)F)C3)o2)CC1 [Compound 28]	< 0.001 µM	

Compound	EC50 [1]	efflux ratio at 120 min, 10 µM [2]
O=C(COc1ccccc1F)N[C@H]1CC[C@H](c2nnc(N3CC(OC(F)(F)F)C3)o2)CC1 [Compound 29]	> 0.1 µM	
O=C(COc1ccc(F)cc1F)N[C@H]1CC[C@H](c2nnc(N3CC(OC(F)(F)F)C3)o2)CC1 [Compound 30]	> 0.1 µM	
O=C(COc1ccc(F)cc1Cl)N[C@H]1CC[C@H](c2nnc(N3CC(OC(F)(F)F)C3)o2)CC1 [Compound 31]	> 0.1 µM	
O=C(COc1cccc(Cl)c1Cl)N[C@H]1CC[C@H](c2nnc(N3CC(OC(F)(F)F)C3)o2)CC1 [Compound 32]	> 0.1 µM	
O=C(COc1ccc(Cl)cc1F)N[C@H]1CC[C@H](c2nnc(N3CC(OC(F)(F)F)C3)o2)CC1 [Compound 33]	0.001 to 0.01 µM	
O=C(COc1ccc(F)c(F)c1)N[C@H]1CC[C@H](c2nnc(N3CC(OC(F)(F)F)C3)o2)CC1 [Compound 34]	0.001 to 0.01 µM	
O=C(COc1ncc(Cl)cn1)N[C@H]1CC[C@H](c2nnc(N3CC(OC(F)(F)F)C3)o2)CC1 [Compound 35]	> 0.1 µM	
O=C(N[C@H]1CC[C@H](c2nnc(N3CC(OC(F)(F)F)C3)o2)CC1)c1nc(Cl)c[nH]1 [Compound 41]	> 0.1 µM	
Cc1csc(C(=O)N[C@H]2CC[C@H](c3nnc(N4CC(OC(F)(F)F)C4)o3)CC2)n1 [Compound 42]	> 0.1 µM	
O=C(N[C@H]1CC[C@H](c2nnc(N3CC(OC(F)(F)F)C3)o2)CC1)c1cc(Cl)c[nH]1 [Compound 43]	0.01 to 0.1 µM	
O=C(N[C@H]1CC[C@H](c2nnc(N3CC(OC(F)(F)F)C3)o2)CC1)c1ccc2cc(Cl)ccc2n1 [Compound 44]	0.001 to 0.01 µM	
O=C(N[C@H]1CC[C@H](c2nnc(N3CC(OC(F)(F)F)C3)o2)CC1)c1cnc(C(F)F)cn1 [Compound 45]	> 0.1 µM	
O=C(N[C@H]1CC[C@H](c2nnc(N3CC(OC(F)(F)F)C3)o2)CC1)c1ccc2c(c1)CCCO2 [Compound 46]	> 0.1 µM	
O=C(COc1cc(F)c(Cl)c(F)c1)N[C@H]1CC[C@H](c2nnc(N3CC(OC(F)(F)F)C3)o2)CC1 [Compound 47]	0.001 to 0.01 µM	
O=C(COc1cc(F)c(Cl)cc1F)N[C@H]1CC[C@H](c2nnc(N3CC(OC(F)(F)F)C3)o2)CC1 [Compound 48]	0.001 to 0.01 µM	
O=C(COc1cc(F)c(Cl)cc1Cl)N[C@H]1CC[C@H](c2nnc(N3CC(OC(F)(F)F)C3)o2)CC1 [Compound 49]	> 0.1 µM	
O=C(COc1ccc(Cl)c(F)c1F)N[C@H]1CC[C@H](c2nnc(N3CC(OC(F)(F)F)C3)o2)CC1 [Compound 50]	0.001 to 0.01 µM	
C[C@@H]1[C@@H](OC(F)(F)F)CN1c1nnc([C@H]2CC[C@H](NC(=O)COc3ccc(Cl)c(F)c3)CC2)o1 [Compound 51-1]	0.01 to 0.1 µM	
C[C@@H]1[C@H](OC(F)(F)F)CN1c1nnc([C@H]2CC[C@H](NC(=O)COc3ccc(Cl)c(F)c3)CC2)o1 [Compound 51-2]	> 0.1 µM	
Nc1cc(Cl)ccc1OCC(=O)N[C@H]1CC[C@H](c2nnc(N3CC(OC(F)(F)F)C3)o2)CC1 [Compound 52]	> 0.1 µM	
O=C(COc1ncc(C(F)(F)F)s1)N[C@H]1CC[C@H](c2nnc(N3CC(OC(F)(F)F)C3)o2)CC1 [Compound 53]	> 0.1 µM	
O=C(COc1ccc(Cl)c(F)c1)N[C@H]1CC[C@H](c2nnc(N3CC(OC(F)(F)F)C3)o2)C[C@H]1O [Compound 86]	0.001 to 0.01 µM	
O=C(CO[C@H]1CC[C@H](c2nnc(N3CC(OC(F)(F)F)C3)o2)CC1)Nc1ccc(Cl)c(F)c1 [Compound 90]	0.001 to 0.01 µM	
C[C@H]1O[C@@H](O[C@H]2[C@@H](O)C[C@H](O[C@H]3[C@@H](O)C[C@H](O[C@H]4CC[C@@]5(C)[C@H](CC[C@@H]6[C@@H]5C[C@@H](O)[C@]5(C)[C@@H](C7=CC(=O)OC7)CC[C@]65O)C4)O[C@@H]3C)O[C@@H]2C)C[C@H](O)[C@@H]1O [Digoxin, reference compound]		44.1
